Test systems include CAKI-1 renal; SK-MEL-28 melanoma; SF-268 CNS; HS 578T breast; RXF 393 renal; UACC-62 melanoma; MDA-MB-435.
Test in all cases: NCI anticancer screen, dose series, 48 h

Where “and” joins values, the source holds several entries; their conditions need not be identical. Equal values may be shown once.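 Five compound concentrations were applied to cells in 96-well plates for 48 hours; endpoints were derived by simple linear interpolation of the resulting dose-response curve. GI50 = concentration required for 50% inhibition of growth. TGI marks complete inhibition of growth.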

For the compound `CCCCCCCCCCCCCOC(=O)c1c(C)[nH]c(/C=C2\N=C(c3ccc[nH]3)C=C2OC)c1C`, the GI50 is 0.0336 µM in the assay on CAKI-1 renal; 0.994 µM in the assay on SK-MEL-28 melanoma; 0.109 µM with SF-268 CNS; 0.0853 µM in the assay with HS 578T breast; 0.465 µM in the assay with RXF 393 renal; 0.0329 µM in the assay with UACC-62 melanoma. The GI50 with MDA-MB-435 is 0.0411 µM. Moreover, the TGI in the assay on SK-MEL-28 melanoma was more than 52.6 µM; with SF-268 CNS, more than 59 µM; in the assay with HS 578T breast it was 5.47 µM; in the assay with RXF 393 renal, 10.5 µM; in the assay on UACC-62 melanoma it was 0.139 µM; in the assay on MDA-MB-435, more than 100 µM.
Take `O=S(=O)(/C=C/C=C/S(=O)(=O)c1ccccc1)c1ccccc1`: the GI50 is 1.04 µM in the assay with CAKI-1 renal; 2.49 µM in the assay on SK-MEL-28 melanoma; 2.51 µM in the assay with SF-268 CNS; 2.93 µM with HS 578T breast; 0.352 µM in the assay with UACC-62 melanoma; 1.04 µM with MDA-MB-435. Besides, the TGI with CAKI-1 renal was 2.54 µM and 2.25 µM; in the assay with SK-MEL-28 melanoma it was 1.96 µM and 5.79 µM; in the assay with SF-268 CNS it was 8.06 µM and 5.4 µM; with HS 578T breast, 8.24 µM and 8.07 µM; in the assay on RXF 393 renal, 0.809 µM and 1.45 µM; with UACC-62 melanoma it was 2.43 µM and 1.88 µM. Moreover, the TGI in the assay on MDA-MB-435 is 4.21 µM and 4.19 µM.
Regarding `COc1ccc(-c2coc3ncnc(N)c23)cc1`, the GI50 in the assay on CAKI-1 renal, in the assay on SK-MEL-28 melanoma, with SF-268 CNS, in the assay on HS 578T breast, with RXF 393 renal and in the assay on UACC-62 melanoma was more than 25 µM in each case. In addition, the GI50 in the assay with MDA-MB-435 is more than 25 µM. The TGI with CAKI-1 renal, in the assay on SK-MEL-28 melanoma, in the assay on SF-268 CNS, in the assay on HS 578T breast, in the assay with RXF 393 renal and in the assay on UACC-62 melanoma was more than 25 µM in each case. Besides, the TGI with MDA-MB-435 is more than 25 µM.
For the compound `Nc1ncc(-c2cnn(C3CCNCC3)c2)cc1-c1nc2ccccc2o1`, the GI50 was 0.532 µM in the assay with CAKI-1 renal; 1.74 µM with SK-MEL-28 melanoma; 1.74 µM with SF-268 CNS; 1.75 µM in the assay with HS 578T breast; 0.485 µM in the assay on RXF 393 renal; 1.6 µM with UACC-62 melanoma. The GI50 with MDA-MB-435 is 1.21 µM. Further, the TGI with CAKI-1 renal was found to be 2.85 µM; with SK-MEL-28 melanoma it was 3.17 µM; in the assay with SF-268 CNS it was 4.58 µM; in the assay on HS 578T breast, 4.28 µM; with RXF 393 renal, 2.25 µM; with UACC-62 melanoma it was 3.07 µM. In the assay with MDA-MB-435, this compound displayed a TGI of 2.62 µM.
Turning to `COc1ccc(C(=O)/C=C/c2cc3ccccc3[nH]c2=O)cc1`, the GI50 was 14.9 µM in the assay on CAKI-1 renal; 33.9 µM with SK-MEL-28 melanoma; 18.1 µM with SF-268 CNS; 20.8 µM with HS 578T breast; 19.7 µM in the assay with RXF 393 renal; 24.4 µM in the assay on UACC-62 melanoma. The GI50 in the assay on MDA-MB-435 is 21.2 µM. Besides, the TGI in the assay on CAKI-1 renal was 28.2 µM; in the assay with SK-MEL-28 melanoma, more than 67.4 µM; in the assay on SF-268 CNS it was 43 µM; with HS 578T breast it was more than 100 µM; with RXF 393 renal, more than 44 µM; in the assay on UACC-62 melanoma it was more than 57.8 µM. For the same compound, the TGI in the assay with MDA-MB-435 was more than 55.8 µM.
In the case of `Oc1c(Br)cc(Br)cc1CN(Cc1cc(Br)cc(Br)c1O)C1CCCCC1`, the TGI in the assay on CAKI-1 renal was more than 100 µM; with SK-MEL-28 melanoma, more than 100 µM; with SF-268 CNS, 71.9 µM; in the assay with HS 578T breast, 53 µM; in the assay on RXF 393 renal, more than 100 µM; in the assay on UACC-62 melanoma, more than 100 µM. Besides, the TGI in the assay on MDA-MB-435 is more than 100 µM.
As to `COc1cc2c(c(OC)c1OC)-c1ccc(OC)c(=O)cc1[C@@H](NC(=O)CCl)CC2`, the GI50 with CAKI-1 renal is 0.0386 µM; in the assay on SK-MEL-28 melanoma, 0.304 µM; in the assay with SF-268 CNS, less than 0.01 µM; in the assay with HS 578T breast it was less than 0.01 µM; in the assay on RXF 393 renal, less than 0.01 µM; with UACC-62 melanoma it was less than 0.01 µM. In addition, the GI50 with MDA-MB-435 was less than 0.01 µM. The TGI in the assay with CAKI-1 renal is 21.2 µM; in the assay with SK-MEL-28 melanoma, 53.8 µM; with SF-268 CNS, 3.53 µM; in the assay with HS 578T breast, more than 100 µM; in the assay with RXF 393 renal, 19.5 µM; in the assay on UACC-62 melanoma it was 20.1 µM. The same compound had a TGI in the assay on MDA-MB-435 of less than 0.01 µM.
As to `CCN(Cc1ccc(F)cc1)c1ccc(CO)c(Cl)c1`, the GI50 was 0.487 µM in the assay with CAKI-1 renal; 14.5 µM with SK-MEL-28 melanoma; 19.8 µM in the assay with SF-268 CNS; 17.8 µM in the assay with HS 578T breast; 2.81 µM in the assay on RXF 393 renal; 0.0693 µM in the assay with UACC-62 melanoma. Also, the GI50 in the assay on MDA-MB-435 is 19.9 µM. Moreover, the TGI with CAKI-1 renal is 8.79 µM; in the assay on SK-MEL-28 melanoma, 39.3 µM; with SF-268 CNS, more than 55.7 µM; with HS 578T breast, more than 66.2 µM; with RXF 393 renal, 21.2 µM; in the assay with UACC-62 melanoma it was 0.522 µM. The TGI in the assay with MDA-MB-435 is 73.2 µM.
As to `CCC1CCc2nc3sc(C(=O)Nc4ccccc4F)c(N)c3cc2C1` (stereo unspecified), the GI50 in the assay on CAKI-1 renal is 0.768 µM; with SK-MEL-28 melanoma, 11.3 µM; with SF-268 CNS it was 16.8 µM; in the assay with HS 578T breast it was 2.13 µM; in the assay with RXF 393 renal it was 1.18 µM; with UACC-62 melanoma, 0.523 µM. Also, in the assay on MDA-MB-435, the GI50 was 0.133 µM. The TGI in the assay on CAKI-1 renal, in the assay on SK-MEL-28 melanoma, with SF-268 CNS, in the assay on HS 578T breast, in the assay on RXF 393 renal and in the assay with UACC-62 melanoma was more than 100 µM throughout. This compound displayed a TGI in the assay with MDA-MB-435 of 0.562 µM.
In the case of `CCCCCCN(CCCCCC)C(=N)c1ccnc2ccccc12`, the GI50 is 3.18 µM in the assay with CAKI-1 renal; 3.13 µM in the assay with SK-MEL-28 melanoma; 13 µM with SF-268 CNS; 12 µM in the assay on HS 578T breast; 4.57 µM in the assay with RXF 393 renal; 4.88 µM with UACC-62 melanoma. In the assay on MDA-MB-435, the GI50 is 3.21 µM. For the same compound, the TGI in the assay on CAKI-1 renal turned out to be 15 µM; in the assay with SK-MEL-28 melanoma, 8.6 µM; in the assay with SF-268 CNS, 26.5 µM; with HS 578T breast, 47.1 µM; in the assay with RXF 393 renal, 15.5 µM; in the assay on UACC-62 melanoma it was 19.6 µM. The compound further had a TGI with MDA-MB-435 of 14.7 µM.
Consider `Cc1cc(N(CCOS(C)(=O)=O)CCOS(C)(=O)=O)ccc1C=Nc1ccc(-c2csc(-c3ccccc3)n2)c(Cl)c1`, for which the TGI in the assay on CAKI-1 renal is 1.32 µM; with SK-MEL-28 melanoma, more than 62.4 µM; in the assay on SF-268 CNS, 54.8 µM; in the assay on HS 578T breast, 49.8 µM; with RXF 393 renal, 7.65 µM; in the assay with UACC-62 melanoma, 20.6 µM. This compound also gave a TGI with MDA-MB-435 of 38 µM.
As for `COc1ccc(OC)c(/C=C/c2nnc(Nc3ccc(Cl)cc3)o2)c1`, the GI50 with CAKI-1 renal was 6.02 µM; in the assay on SK-MEL-28 melanoma, 26.8 µM; in the assay with SF-268 CNS, 7.6 µM; in the assay with HS 578T breast it was 2.71 µM; with RXF 393 renal, 2.71 µM; with UACC-62 melanoma, 16.2 µM. In addition, the GI50 with MDA-MB-435 was 37 µM. Besides, the TGI in the assay on CAKI-1 renal is more than 100 µM; in the assay on SK-MEL-28 melanoma it was more than 100 µM; with SF-268 CNS, 37.9 µM; in the assay on HS 578T breast, 8.01 µM; in the assay with RXF 393 renal, 7.92 µM; with UACC-62 melanoma, more than 100 µM. Also, the TGI with MDA-MB-435 is more than 100 µM.
`O=C1C(=O)c2cc([N+](=O)[O-])ccc2-c2ccccc21`: the GI50 in the assay on CAKI-1 renal was 1.67 µM; with SK-MEL-28 melanoma, 1.73 µM; in the assay on SF-268 CNS it was 1.29 µM; in the assay with HS 578T breast, 1.68 µM; in the assay on RXF 393 renal, 1.96 µM; in the assay with UACC-62 melanoma it was 1.7 µM. For the same compound, the GI50 with MDA-MB-435 was 0.402 µM. Also, the TGI amounted to 3.21 µM in the assay on CAKI-1 renal; 3.11 µM in the assay with SK-MEL-28 melanoma; 2.62 µM in the assay on SF-268 CNS; 4.49 µM with HS 578T breast; 3.43 µM in the assay with RXF 393 renal; 3.13 µM in the assay with UACC-62 melanoma. The same compound came in with a TGI in the assay on MDA-MB-435 of 1.53 µM.
As to `COc1cccc(-c2nn(-c3ccccc3)cc2-c2ccnc(NCCNS(=O)(=O)c3ccc(C(F)(F)F)cc3)c2)c1`, the GI50 in the assay on CAKI-1 renal was 3.64 µM; with SK-MEL-28 melanoma, 5.66 µM; in the assay on SF-268 CNS it was 3.54 µM; in the assay on HS 578T breast, 4.07 µM; with RXF 393 renal, 2.1 µM; in the assay on UACC-62 melanoma, 3.22 µM. For the same compound, the GI50 with MDA-MB-435 was 3.23 µM. For the same compound, the TGI in the assay with CAKI-1 renal is more than 100 µM; with SK-MEL-28 melanoma it was more than 100 µM; with SF-268 CNS, more than 100 µM; in the assay with HS 578T breast, more than 100 µM; in the assay with RXF 393 renal it was 5.5 µM; with UACC-62 melanoma, 35 µM. The compound further had a TGI in the assay on MDA-MB-435 of 17.5 µM.
Consider `Cc1cc(Cl)ccc1Nc1sc(C(=O)c2cc3cc(Cl)ccc3o2)c(N)c1C#N`, for which the TGI is more than 100 µM with CAKI-1 renal; more than 100 µM in the assay on SK-MEL-28 melanoma; 26.9 µM in the assay on SF-268 CNS; more than 100 µM in the assay on HS 578T breast; more than 100 µM in the assay with RXF 393 renal; more than 100 µM with UACC-62 melanoma. In the assay with MDA-MB-435, the TGI was more than 100 µM.
With `CCCCCCCCN(CCCCCCCC)C(=N)c1ccnc2ccccc12`, the GI50 in the assay with CAKI-1 renal is 1.17 µM; in the assay on SK-MEL-28 melanoma, 0.312 µM; in the assay on SF-268 CNS, 1.31 µM; in the assay on HS 578T breast it was 1.71 µM; in the assay with RXF 393 renal it was 0.874 µM; with UACC-62 melanoma it was 1.25 µM. Besides, the GI50 in the assay on MDA-MB-435 was 0.302 µM. Moreover, the TGI with CAKI-1 renal turned out to be 2.44 µM; in the assay on SK-MEL-28 melanoma, 1.07 µM; with SF-268 CNS, 2.89 µM; with HS 578T breast, 4.81 µM; in the assay with RXF 393 renal, 2.36 µM; in the assay with UACC-62 melanoma, 2.65 µM. In addition, the TGI with MDA-MB-435 was found to be 1.07 µM.

The values are drawn from PubChem BioAssay (NCI).
